Laboratory results from PMC4305095, “Characterization of Aspergillus aculeatus β-glucosidase 1 accelerating cellulose hydrolysis with Trichoderma cellulase system” (AMB Express, 2015).

Target: T1, rAaBGL1 (Aspergillus aculeatus β-glucosidase 1) (Aspergillus aculeatus, UniProt P48825)
T1 construct: full AaBGL1 gene amplified from A. aculeatus genomic DNA, own signal peptide, no tag mentioned; expressed in Aspergillus oryzae niaD300, released from cell surface
T1 sequence (P48825 20-860): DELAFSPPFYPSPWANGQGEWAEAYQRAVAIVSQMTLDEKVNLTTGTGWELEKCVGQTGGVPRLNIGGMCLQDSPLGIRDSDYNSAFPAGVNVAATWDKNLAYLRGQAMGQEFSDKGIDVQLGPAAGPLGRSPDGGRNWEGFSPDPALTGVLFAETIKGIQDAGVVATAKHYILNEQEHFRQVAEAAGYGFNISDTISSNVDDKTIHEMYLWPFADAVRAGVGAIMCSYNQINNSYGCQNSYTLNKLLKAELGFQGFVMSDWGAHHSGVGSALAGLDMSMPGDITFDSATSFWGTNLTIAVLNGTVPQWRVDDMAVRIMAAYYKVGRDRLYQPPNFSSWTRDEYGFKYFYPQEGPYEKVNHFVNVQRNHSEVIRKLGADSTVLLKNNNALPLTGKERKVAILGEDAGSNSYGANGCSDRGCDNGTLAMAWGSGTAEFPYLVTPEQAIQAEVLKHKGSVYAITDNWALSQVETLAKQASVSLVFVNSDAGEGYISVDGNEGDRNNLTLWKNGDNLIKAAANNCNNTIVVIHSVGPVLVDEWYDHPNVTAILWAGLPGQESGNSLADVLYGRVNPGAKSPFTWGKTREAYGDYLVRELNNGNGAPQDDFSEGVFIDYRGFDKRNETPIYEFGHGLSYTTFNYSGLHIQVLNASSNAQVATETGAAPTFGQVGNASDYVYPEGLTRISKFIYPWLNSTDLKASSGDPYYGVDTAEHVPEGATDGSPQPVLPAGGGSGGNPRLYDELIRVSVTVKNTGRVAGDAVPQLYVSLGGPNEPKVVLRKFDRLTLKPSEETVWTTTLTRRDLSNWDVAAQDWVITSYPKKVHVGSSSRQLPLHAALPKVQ
Experiment: pNP-Glc hydrolysis, absorbance […] nm, Dixon plot
Assay type: biochemical
Conditions: 0.1-0.4 mM pNP-Glc, 20 mM sodium acetate pH 5.0, 37°C; competitive

`OC[C@H]1OC(O)[C@H](O)[C@@H](O)[C@@H]1O` (stereo partly shown) [glucose] gave a Ki of 9.99 ± 0.94 mM.
